Test results: patent publication US9192618B2, “Method of treating constipation-predominant irritable bowel syndrome” (Cedars-Sinai Medical Center, priority 2002, dated 2015)

What was measured:
[1] = test system: irritable bowel syndrome (IBS) subjects; assay: Double-blind, randomized, placebo-controlled study of neomycin in IBS subjects (symptom questionnaire and lactulose breath test); format: in vivo, human; conditions: for patient-reported bowel normalization / reduction in composite score (CS): mean ± S.E.
From the text: In a double-blind, randomized, placebo-controlled study, we confirm that an abnormal lactulose breath test is more prevalent in IBS than normal controls, and that antibiotic treatment in IBS leads to an improvement in symptoms and that this is based on antibiotic-induced normalization of breath test. […] This is another important step in linking SIBO and IBS.
Study subjects were recruited by advertising in local newspapers, radio and IBS support groups throughout the greater Los Angeles area. To avoid referral bias, subjects were not recruited through the GI motility clinic or any gastroenterology practice based at Cedars-Sinai Medical Center. Subjects were included if they met Rome I criteria for IBS (7). […] Subjects were excluded if they had antibiotics within the previous three months, a previous lactulose breath test (LBT), or a history of diabetes, thyroid disease, intestinal surgery (except cholecystectomy or appendectomy), connective tissue disease, narcotic use or known gastrointestinal disease. Subjects with renal insufficiency, hearing impairment, probiotic use or allergy to aminoglycosides were also excluded. Approval from the institutional review board and written informed consent from the participating subjects were obtained.
Subjects presented to the GI Motility Laboratory having fasted from 7:00 p.m. the night before. They were instructed not to ingest legumes or a heavy meal for dinner the night prior to evaluation. Good oral hygiene was recommended and smoking was not permitted on the day of testing.
Prior to the LBT, subjects completed a symptom questionnaire asking them to grade nine IBS symptoms (abdominal pain, diarrhea, constipation, bloating, sense of incomplete evacuation, straining, urgency, mucus and gas) on a severity score of 0-5 as has been previously used and recommended (15-17). All questions were answered based on their recall of the preceding 7 days (17).
Subjects then underwent a LBT by ingesting 10 g of lactulose (Inalco Spa, Milano, Italy, packaged by Xactdose Inc., South Beloit, Ill.) followed by 1-2 ounces of water after an initial baseline breath sample. Breath samples were then collected at 15 minute intervals for 180 minutes. End expiratory breath samples were taken to ensure alveolar gas sampling. Samples were analyzed for hydrogen, methane and carbon dioxide using a Model SC, Quintron gas chromatograph (Quintron Instrument Company, Milwaukee, Wis.). Carbon dioxide measurements were used to correct for the quality of alveolar sampling. Measurements were plotted graphically as previously described (12). Patients and investigators were blinded to the result of the breath test.
All subjects were randomized by personnel not associated with the study to receive, in a double blind fashion, either neomycin (500 mg) (Teva pharmaceuticals, USA, Sellersville, Pa.) or matching placebo twice daily for 10 days. Seven days after completion of the antibiotic or placebo, subjects returned for a repeat questionnaire and LBT. A seven day follow up was chosen since in our experience the abnormal breath test in IBS can recur as early as two weeks after antibiotic normalization. As part of the follow up questionnaire, subjects were asked to subjectively rate the amount of improvement they experienced as a percent normalization of bowel function and repeated their perceived severity of the 9 bowel symptoms described earlier. Compliance was assessed by pill count. To comply with institutional review board requirements, follow-up LBT results could not be blinded so patients could seek appropriate medical therapy for their test result.
At the completion of enrollment, all initial and follow-up breath tests were coded and randomized by personnel not involved in the interpretation of the test. A blinded reviewer (M.P.) interpreted the results and was asked to categorize the breath tests based on whether the test met the criteria for normal LBT. […]

IBS = conditions: literature report (ref. 21); cited from earlier work
[2] = test system: intestinal transit in dogs; assay: Intestinal transit in dogs with duodenal and mid-gut fistulas after bolus delivery of gas to the distal gut (99mTc-DTPA recovery); format: in vivo; conditions: 180 ml bolus to the distal gut at time 0, n=three dogs
Experimental: In dogs equipped with duodenal (10 cm from pylorus) and mid-gut (160 cm from pylorus) fistulas, intestinal transit was compared across an isolated 150 cm test segment (between fistulas) while the proximal segment of the gut was perfused with pH 7.0 phosphate buffer at 2 mL/min for 90 minutes. Room air (n=three dogs) or methane (n=three dogs) was delivered into the distal gut as a 180-ml bolus at time 0. Sixty minutes after the start of the perfusion, 20 μCi of ^99mTc-DTPA (diethylenetriaminepentaacetic acid) was delivered as a bolus into the proximal segment of the gut. Intestinal transit was then measured by counting the radioactivity of 1 ml samples collected every 5 minutes from the diverted output of the mid-gut fistula. Intestinal transit was calculated by determining the area under the curve (AUC) of the cumulative percent recovery of the radioactive marker in the control (air administration) and experimental (methane administration) dogs. The square root values of the AUC (Sqrt AUC), where 0=no recovery by 30 minutes and 47.4=theoretical, instantaneous complete recovery by time 0, were compared for the control and experimental animals, using 2-way repeated measures ANOVA.

Molecule: neomycin
- patient-reported bowel normalization ([1]; 91 subjects who completed the question): 40.1±5.3%
- subjects achieving normalization of LBT ([1]; abnormal baseline LBT, complete data, 8 out of 41): 20%
- self-reported percent bowel normalization ([1]; abnormal baseline LBT, neomycin but not successful normalization of LBT): 36.7±6.1%
- percent reduction in CS ([1]; abnormal baseline LBT, neomycin-treated group that did not achieve LBT normalization): 34.4±6.2%
- percent reduction in CS ([1]; abnormal baseline LBT, neomycin-treated group with LBT normalization): 61.7±9.4%
- self-reported percent bowel normalization ([1]; abnormal baseline LBT, normal follow up LBT after neomycin): 75.0±6.4%
- subjects with true clinical response (≧50% improvement in CS) ([1]; all subjects receiving neomycin, 24 out of 55): 43%
- odds ratio of true clinical response (≧50% improvement in CS) versus placebo ([1]; all subjects, CI=1.05-6.3): 4.3
- reduction in composite score (CS) ([1]; intention-to-treat, all subjects (n=111), neomycin 500 mg twice daily for 10 days): 35.0±0.7%
- reduction in composite score (CS) ([1]; subgroup with abnormal baseline LBT (n=93)): 35.4±0.8%
- subjects with true clinical response (≧50% improvement in CS) ([1]; subgroup with abnormal breath tests, 21 out of 46): 46%
- odds ratio of true clinical response (≧50% improvement in CS) versus placebo ([1]; subgroup with abnormal breath tests, CI=1.62-14.7): 4.8
- patient-reported bowel normalization ([1]; subgroup with abnormal initial breath tests): 44.8±5.6%
- reduction in composite score (CS) versus placebo ([1]; subjects with a normal baseline breath test): No difference
- subjects with true clinical response (≧50% reported bowel normalization) ([1]; subjects with abnormal initial breath test): 55%
- odds ratio of true clinical response (≧50% reported bowel normalization) versus placebo ([1]; subjects with abnormal initial breath test, CI=2.5-39.7): 9.6
- subjects reporting more than 50% normalization of bowel function ([1]; subjects with normal follow up LBT after neomycin, 7 out of 8): 88%
- odds ratio of true clinical response (≧50% reported bowel normalization) versus placebo ([1]; whole group who answered (n=91), CI=1.7-14.4): 4.8
- subjects with true clinical response (≧50% reported bowel normalization) ([1]; whole group who answered the question (n=91)): 50%

Molecule: Cc1ncc([N+](=O)[O-])n1CCO [flagyl]
- reduction of clinical symptoms in IBS versus placebo (IBS): superior to placebo

Molecule: C [methane]
- effect on rate of intestinal transit versus room air control [2]: substantially slowed the rate of intestinal transit
- effect on rate of intestinal transit versus room air control ([2]; listed as Methane): slowed intestinal transit
